Source: publication PMC11847541, “Liver fatty acid binding protein FABP1 transfers substrates to cytochrome P450 4A11 for catalysis” (The Journal of Biological Chemistry, 2025)

Key:
P450 4A11 = target: T1, P450 4A11 (Homo sapiens, UniProt Q02928); assay type: biochemical; set-up: made in house; host or cells: E. coli
T1 sequence (Q02928 5-519): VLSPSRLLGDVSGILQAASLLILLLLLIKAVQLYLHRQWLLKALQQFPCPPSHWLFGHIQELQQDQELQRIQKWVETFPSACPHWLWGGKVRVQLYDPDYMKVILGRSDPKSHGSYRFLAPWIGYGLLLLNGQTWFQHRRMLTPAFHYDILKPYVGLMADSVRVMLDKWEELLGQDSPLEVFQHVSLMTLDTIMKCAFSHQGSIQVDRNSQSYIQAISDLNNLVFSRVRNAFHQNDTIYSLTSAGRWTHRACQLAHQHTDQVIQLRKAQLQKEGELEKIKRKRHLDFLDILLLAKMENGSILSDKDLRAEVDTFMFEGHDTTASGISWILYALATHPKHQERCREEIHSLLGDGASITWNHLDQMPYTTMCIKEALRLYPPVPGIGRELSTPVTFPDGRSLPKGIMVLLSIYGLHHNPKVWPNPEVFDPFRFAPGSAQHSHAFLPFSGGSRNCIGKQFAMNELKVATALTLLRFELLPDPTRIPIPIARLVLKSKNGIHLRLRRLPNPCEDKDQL
From the text: To differentiate between the two possible roles of FABP1 in P450 catalysis (competitive binder versus direct transfer, Fig. 2), two catalytic experiments testing palmitate oxidation were designed: one in which the FABP1 concentration was varied with a fixed concentration of palmitate (Fig. 12A) and another performed vice versa (Fig. 12B).
Dashed lines are the predicted kinetic data from the free ligand model (blue) and the direct transfer model (red) using the experimentally determined rate constants (Table 1, Fig. 2). A reaction performed without the addition of FABP1 (open circles) was also fit to a modeled curve (black dashed line), which utilizes only the rate constants determined for P450 4A11. Error bars reflect standard deviation of two replicate values, that is, range (if not visible, the deviation is too small to be represented). FABP1, fatty acid binding protein.
Potassium phosphate buffer (100 mM, pH 7.4), DTT (1 mM, added as described earlier ([44], [56])), and [1-^14C]-palmitate (5 μM, 20 mCi/mmol [added from a 1 mM stock in C2H5OH]) were added, and the mixture was split between vials. Just prior to the reaction preincubation, FABP1 (0–5 μM) was added (diluted so the same volume of FABP1 stock solutions were added to each sample). The mixtures were preincubated (5 min, 37 °C), and P450 4A11 activity was initiated with an NADPH-regenerating system ([78]), the addition of which brought reactions to their final volume (0.5 ml). Reactions (5 min) were quenched via the addition of CH2Cl2 (5 ml), were mixed with a vortex device, and were placed on ice. After the completion of the time course, the samples were centrifuged (1000g, 5 min, 23 °C) to separate layers, the organic layer (4 ml) was transferred to fresh vials, and the solvent was removed under a stream of N2. […] The column eluate was mixed (1:2, v/v) with FlowLogic U scintillation cocktail (LabLogic), and radioactivity (^14C) was detected using a β-RAM Model 5 radioflow detector (IN/US; LabLogic). Product was quantitated on the basis of its ^14C peak area relative to the summed radioactivity of the substrate and product.
To determine the reaction rate versus palmitate concentration, a similar reconstitution premixture was prepared with the modification that FABP1 (5 μM) was used instead of palmitate, and the concentrations of P450 4A11 and NADPH–P450 reductase were increased to 0.3 μM and 0.6 μM, respectively. […] The residue was dissolved in 50 μl C2H5OH, transferred to autosampler vials, and analyzed on LC–MS as described earlier (see “Quantitation of ligand-bound FABP1”) but set to operate in the negative-ion mode with the gradient mobile phase modified to (all % v/v: 0 min, 65% B; 0.5 min, 65% B; 5 min, 100% B; 7.5 min, 100% B; 7.6 min, 65% B; 9 min, 65% B). […]

FABP1 = target: T2, FABP1 (Homo sapiens, UniProt P07148); conditions: human FABP1, fluorescence displacement assay; read-out: Kd; cited from earlier work
T2 construct: GST (N, cleaved yes); made in house; host or cells: Escherichia coli DH5α
T2 sequence (P07148 with tags, fused parts or gaps): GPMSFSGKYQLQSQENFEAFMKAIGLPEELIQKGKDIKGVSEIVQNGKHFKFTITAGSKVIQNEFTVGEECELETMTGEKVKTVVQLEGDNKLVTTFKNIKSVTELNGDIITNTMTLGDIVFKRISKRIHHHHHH

maximal observed rate of reaction (P450 4A11; - cytochrome b5) [min⁻¹]	kcat estimate (P450 4A11; - cytochrome b5, P450 4A11 0.05 µM) [s⁻¹]	maximum measurable rate of reaction (k2) (P450 4A11; palmitate oxidation, without cytochrome b5, did not saturate) [s⁻¹]	Compound	reduction of enzyme activity (P450 4A11) [%]	Kd (FABP1) [nM]
–	–	–	FABP1: delipidated recombinant liver fatty acid binding protein with C-terminal hexahistidine tag	≤ 50	–
12 ± 1	0.483 ± 0.05	0.2	CCCCCCCCCCCCCCCC(=O)O [Palmitate (C16), palmitate]	–	38 ± 1
